Paper PMC9319939, “Siccanin Is a Dual-Target Inhibitor of Plasmodium falciparum Mitochondrial Complex II and Complex III” (Pharmaceuticals, 2022)
Where two headings read alike, the source gives them in different places.

Assays:
[1] = tested on: Plasmodium spp. complex II; test: Plasmodium spp. complex II inhibition (literature values); format: biochemical; conditions: ratio between mammalian and Plasmodium complex II IC50s
From the text: Table 1 Selectivity of classical complex II inhibitor against Plasmodium spp. and mammal complex II. | column: Selectivity ^a

Mammal complex II = conditions: read-out: Complex II IC50, Mammal, cited from earlier work
[2] = tested on: Plasmodium spp. complex II; conditions: cited from earlier work; for Effect on Plasmodium mitochondrial complex II: classical ubiquinone-site inhibitors, ref [30], [14]
P. falciparum 3D7-yDHODH = test: Growth inhibition of yeast DHODH-expressing strain; format: cell-based; conditions: Plasmodium falciparum, 3D7, read-out: Growth inhibition EC50, 3D7-yDHODH
Experimental: P. falciparum 3D7-yDHODH was prepared and maintained as described previously. P. falciparum Dd2, and Dd2-derived mutant strains were kindly provided by David A. Fidock, and maintained at Nagasaki University essentially as described in reference, except without supplementation with WR99210.
(§1) Synchronized ring-form parasites (0.3% parasitemia) were prepared in complete medium containing different concentration of various compounds (at a fixed final DMSO concentration of 0.1% (v/v)) and distributed to 96-well plates at 100 μL/well. After 72 h of incubation, parasite growth was monitored by the previously described lactate dehydrogenase (PfLDH)-based assay method; plates were read using a SpectraMax® Paradigm spectrophotometer (Molecular Devices, Inc.; San Jose, CA, USA). EC50 values were calculated using Prism® ver.6.01 (GraphPad; San Diego, CA, USA). Values are presented as the means of three independent experiments.

P. falciparum 3D7 = test: Drug sensitivity assay, 72 h, PfLDH-based; format: cell-based; conditions: Plasmodium falciparum, 3D7; Figure 6b; read-out: Growth inhibition EC50, 3D7
Experimental: The P. falciparum 3D7 strain was cultured, as described previously, in 3% hematocrit type A human red blood cells (RBCs) in RPMI1640 medium (Invitrogen; San Diego, CA, USA) supplemented with 25 mM sodium hydrogen biocarbonate, 10 μg/mL hypoxanthine, 40 μg/mL gentamicin sulfate, and 0.5% (w/v) Albumax II (Invitrogen) (“complete medium”). Cultures were maintained in a MG-70M multi-gas incubator (Taitec) under the conditions of 5% O2, 5% CO2, and 90% N2 at 37 °C. The medium was replaced daily. Parasitemia was measured by thin blood smears stained with Giemsa. In our previous study, we generated mutant P. falciparum strains expressing either disrupted or full-length versions of the flavoprotein (Fp) subunit (encoded by the Pfsdha gene). Both strains were cultured in complete medium at 3% hematocrit supplemented with 5 nM WR99210 (Jacobus Pharmaceuticals; Plainsboro, NJ, USA). The experiments using human RBCs were performed under the guidelines of Research Ethics Committee of the Faculty of Medicine of the University of Tokyo and Institutional Review Board (IRB) of Nagasaki University (Permission nos. 10050 and no. 19, respectively). Human RBCs were obtained from The Japanese Red Cross Society. The synchronization of parasite cultures was performed by treating with 5% (w/v) sorbitol for 10 min [77].
as §1

Structure (SMILES)	Selectivity [1]	IC50 (Mammal complex II; ref Mogi et al. [34])	IC50 ([2]; ref Suraveratum et al. [30])	IC50 (Mammal complex II; ref Miyadera et al. [29])	Effect on Plasmodium mitochondrial complex II [2]	IC50 ([2]; ref Kawahara et al. [14])	EC50 (P. falciparum 3D7-yDHODH)	EC50 (P. falciparum 3D7)
O=C(O)CC(=O)O [Malonate]	0.26	3400 nM	13.2 ± 0.49 µM	–	–	–	–	–
COc1[nH]c(=O)c(C(=O)[C@@H](C)C[C@H](C)[C@@H](Cl)CCl)c(O)c1OC [Atpenin A5]	0.00087	–	–	4 nM	ineffective	4.6 ± 0.2 µM	–	–
O=C1C(O)=C([C@H]2CC[C@H](c3ccc(Cl)cc3)CC2)C(=O)c2ccccc21 [Atovaquone]	–	–	–	–	–	–	> 100 nM	0.56 nM
O=C(CC(=O)C(F)(F)F)c1cccs1 [TTFA, 2-thenoyltrifluoroacetone]	<0.11	–	> 50 µM	5400 nM	ineffective	–	–	–
CC1=C(C(=O)Nc2ccccc2)SCCO1 [Carboxin]	0.28	–	–	1000 nM	ineffective	3.6 ± 1 µM	–	–
